Assays:
[1] = system: wheat; assay: Test C preemergence; assay type: in vivo, Triticum aestivum
Procedure, shortened: (§1)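 Greenhouse herbicide screen, 10-day duration. Test chemicals in solvent/surfactant blend were sprayed onto soil at sowing (pre) or onto 2–10 cm seedlings at one to two leaves (post); injury scored visually against controls, 0 no effect to 100 complete control.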

[2] = system: wheat; assay: Test C postemergence; assay type: in vivo, Triticum aestivum; conditions: 10 days, 0 to 100 scale (0 no effect, 100 complete control)
Procedure, shortened: as §1

[3] = system: barnyardgrass; assay: Test C preemergence; assay type: in vivo, Echinochloa crusgalli
Procedure, shortened: as §1

[4] = system: ryegrass, Italian; assay: Test C postemergence; assay type: in vivo, Lolium multiflorum; conditions: 10 days, 0 to 100 scale (0 no effect, 100 complete control)
Procedure, shortened: as §1

[5] = system: pigweed, palmer; assay: Test C postemergence; assay type: in vivo, Amaranthus palmeri; conditions: 10 days, 0 to 100 scale (0 no effect, 100 complete control)
Procedure, shortened: as §1

[6] = system: blackgrass; assay: Test C postemergence; assay type: in vivo, Alopecurus myosuroides; conditions: 10 days, 0 to 100 scale (0 no effect, 100 complete control)
Procedure, shortened: as §1

[7] = system: barnyardgrass; assay: Test C postemergence; assay type: in vivo, Echinochloa crusgalli; conditions: 10 days, 0 to 100 scale (0 no effect, 100 complete control)
Procedure, shortened: as §1

[8] = system: sedge, umbrella; assay: Test D flooded paddy test; assay type: in vivo, Cyperus difformis; conditions: 250 g ai/ha, applied to paddy water, visual rating after 13 to 14 days, scale 0 to 100 (0 no effect, 100 complete control)
Procedure, shortened: (§2)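 Plants at the 2-leaf stage were grown in pots flooded to 3 cm, and compound was applied directly into the paddy water, with depth kept throughout. After 13–14 days in a greenhouse, injury was rated visually against untreated controls on a 0–100 scale (100 = complete control); a dash means not tested.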

[9] = system: rice; assay: Test D flooded paddy test; assay type: in vivo, Oryza sativa; conditions: 250 g ai/ha, applied to paddy water, visual rating after 13 to 14 days, scale 0 to 100 (0 no effect, 100 complete control)
Procedure, shortened: as §2

[10] = system: oat, wild; assay: Test C postemergence; assay type: in vivo, Avena fatua; conditions: 10 days, 0 to 100 scale (0 no effect, 100 complete control)
Procedure, shortened: as §1

[11] = system: kochia; assay: Test C postemergence; assay type: in vivo, Bassia scoparia; conditions: 10 days, 0 to 100 scale (0 no effect, 100 complete control)
Procedure, shortened: as §1

[12] = system: oat, wild; assay: Test C preemergence; assay type: in vivo, Avena fatua
Procedure, shortened: as §1

[13] = system: soybean; assay: Test C preemergence; assay type: in vivo, Glycine max
Procedure, shortened: as §1

[14] = system: pigweed, palmer; assay: Test C preemergence; assay type: in vivo, Amaranthus palmeri
Procedure, shortened: as §1

[15] = system: soybean; assay: Test C postemergence; assay type: in vivo, Glycine max; conditions: 10 days, 0 to 100 scale (0 no effect, 100 complete control)
Procedure, shortened: as §1

[16] = system: ducksalad; assay: Test D flooded paddy test; assay type: in vivo, Heteranthera limosa; conditions: 250 g ai/ha, applied to paddy water, visual rating after 13 to 14 days, scale 0 to 100 (0 no effect, 100 complete control)
Procedure, shortened: as §2

[17] = system: kochia; assay: Test C preemergence; assay type: in vivo, Bassia scoparia
Procedure, shortened: as §1

[18] = system: green foxtail; assay: Test C postemergence; assay type: in vivo, Setaria viridis; conditions: 10 days, 0 to 100 scale (0 no effect, 100 complete control)
Procedure, shortened: as §1

[19] = system: green foxtail; assay: Test C preemergence; assay type: in vivo, Setaria viridis
Procedure, shortened: as §1

[20] = system: ragweed; assay: Test C preemergence; assay type: in vivo, Ambrosia artemisiifolia
Procedure, shortened: as §1

[21] = system: blackgrass; assay: Test C preemergence; assay type: in vivo, Alopecurus myosuroides
Procedure, shortened: as §1

[22] = system: barnyardgrass; assay: Test D flooded paddy test; assay type: in vivo, Echinochloa crus-galli; conditions: 250 g ai/ha, applied to paddy water, visual rating after 13 to 14 days, scale 0 to 100 (0 no effect, 100 complete control)
Procedure, shortened: as §2

[23] = system: horseweed; assay: Test C postemergence; assay type: in vivo, Erigeron canadensis; conditions: 10 days, 0 to 100 scale (0 no effect, 100 complete control)
Procedure, shortened: as §1

[24] = system: corn; assay: Test C preemergence; assay type: in vivo, Zea mays
Procedure, shortened: as §1

[25] = system: ryegrass, Italian; assay: Test C preemergence; assay type: in vivo, Lolium multiflorum
Procedure, shortened: as §1

[26] = system: corn; assay: Test C postemergence; assay type: in vivo, Zea mays; conditions: 10 days, 0 to 100 scale (0 no effect, 100 complete control)
Procedure, shortened: as §1

[27] = system: galium; assay: Test C postemergence; assay type: in vivo, Galium aparine; conditions: 10 days, 0 to 100 scale (0 no effect, 100 complete control)
Procedure, shortened: as §1

[28] = system: ragweed; assay: Test C postemergence; assay type: in vivo, Ambrosia artemisiifolia; conditions: 10 days, 0 to 100 scale (0 no effect, 100 complete control)
Procedure, shortened: as §1

[29] = 500 g ai/ha, preemergence, 0 to 100 scale (0 no effect, 100 complete control)
[30] = Preemergence, 125 g ai/ha, 0 to 100 scale, 0 no effect, 100 complete control

Cc1cccc2c1OC(C(F)(F)F)CN2C(=O)c1cccc(-n2cnc(C(C)(C)C)n2)c1 (stereo not shown) [Compound 347]
Wheat plant response rating [1, 29]: 40 | Plant response rating, Wheat [1, 30]: 20 | Plant response rating, Wheat ([2]; 500 g ai/ha, postemergence): 10 | Plant response rating, Wheat ([2]; Postemergence, 125 g ai/ha): 10 | Barnyardgrass plant response rating [3, 29]: 100 | Plant response rating, Barnyardgrass [3, 30]: 20 | Plant response rating, Ryegrass, Italian ([4]; 500 g ai/ha, postemergence): 30 | Plant response rating, Ryegrass, Italian ([4]; Postemergence, 125 g ai/ha): 20 | Plant response rating, Pigweed, Palmer ([5]; 500 g ai/ha, postemergence): 80 | Plant response rating, Pigweed, Palmer ([5]; Postemergence, 125 g ai/ha): 80 | Plant response rating, Blackgrass ([6]; 500 g ai/ha, postemergence): 60 | Plant response rating, Blackgrass ([6]; Postemergence, 125 g ai/ha): 10 | Plant response rating, Barnyardgrass ([7]; 500 g ai/ha, postemergence): 20 | Plant response rating, Barnyardgrass ([7]; Postemergence, 125 g ai/ha): 10 | Plant response rating, Sedge, Umbrella (Flood) [8]: 0 | Plant response rating, Rice (Flood) [9]: 0 | Plant response rating, Oat, Wild ([10]; 500 g ai/ha, postemergence): 10 | Plant response rating, Oat, Wild ([10]; Postemergence, 125 g ai/ha): 10 | Plant response rating, Kochia ([11]; 500 g ai/ha, postemergence): 70 | Plant response rating, Kochia ([11]; Postemergence, 125 g ai/ha): 50 | Oat, Wild plant response rating [12, 29]: 70 | Plant response rating, Oat, Wild [12, 30]: 60 | Soybean plant response rating [13, 29]: 30 | Plant response rating, Soybean [13, 30]: 30 | Pigweed, Palmer plant response rating [14, 29]: 70 | Plant response rating, Pigweed, Palmer [14, 30]: 80 | Plant response rating, Soybean ([15]; 500 g ai/ha, postemergence): 100 | Plant response rating, Soybean ([15]; Postemergence, 125 g ai/ha): 100 | Plant response rating, Ducksalad (Flood) [16]: 0 | Kochia plant response rating [17, 29]: 60 | Plant response rating, Kochia [17, 30]: 50 | Plant response rating, Foxtail, Green ([18]; 500 g ai/ha, postemergence): 60 | Plant response rating, Foxtail, Green ([18]; Postemergence, 125 g ai/ha): 20 | Foxtail, Green plant response rating [19, 29]: 100 | Plant response rating, Foxtail, Green [19, 30]: 90 | Ragweed plant response rating [20, 29]: 30 | Plant response rating, Ragweed [20, 30]: 0 | Blackgrass plant response rating [21, 29]: 30 | Plant response rating, Blackgrass [21, 30]: 10 | Plant response rating, Barnyardgrass (Flood) [22]: 0 | Plant response rating, Horseweed ([23]; 500 g ai/ha, postemergence): 20 | Plant response rating, Horseweed ([23]; Postemergence, 125 g ai/ha): 0 | Corn plant response rating [24, 29]: 10 | Plant response rating, Corn [24, 30]: 0 | Ryegrass, Italian plant response rating [25, 29]: 100 | Plant response rating, Ryegrass, Italian [25, 30]: 100 | Plant response rating, Corn ([26]; 500 g ai/ha, postemergence): 10 | Plant response rating, Corn ([26]; Postemergence, 125 g ai/ha): 10 | Plant response rating, Galium ([27]; 500 g ai/ha, postemergence): 80 | Plant response rating, Galium ([27]; Postemergence, 125 g ai/ha): 90 | Plant response rating, Ragweed ([28]; 500 g ai/ha, postemergence): 50 | Plant response rating, Ragweed ([28]; Postemergence, 125 g ai/ha): 20

From patent US20260262643A1, “HERBICIDAL BENZOXAZINES” (FMC CORPORATION, priority 2022, published 2026)
